Converted amounts (≈) assume the structure as drawn. The source made the active and inactive calls. No cut-off for these calls is given here.
Key:
[1] = biological target: T1, fMet-Leu-Phe receptor (Homo sapiens, UniProt P21462); test: (§1) Intrinsic activity at FPR1 in human neutrophils assessed as increase in calcium mobilization by FLIPR assay relative to fMLF; type: functional
T1 sequence (P21462 whole entry): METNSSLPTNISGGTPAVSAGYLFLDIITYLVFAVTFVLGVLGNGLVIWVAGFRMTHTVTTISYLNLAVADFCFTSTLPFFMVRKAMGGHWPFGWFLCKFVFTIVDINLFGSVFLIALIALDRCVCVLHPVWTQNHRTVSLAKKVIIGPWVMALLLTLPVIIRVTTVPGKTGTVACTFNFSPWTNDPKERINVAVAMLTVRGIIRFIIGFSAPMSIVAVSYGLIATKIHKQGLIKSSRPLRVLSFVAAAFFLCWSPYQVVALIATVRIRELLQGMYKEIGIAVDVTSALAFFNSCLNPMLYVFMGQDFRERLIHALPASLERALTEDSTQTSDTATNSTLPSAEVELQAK

[2] = biological target: T2, fMet-Leu-Phe receptor (Homo sapiens) (UniProt P21462); test: Antagonist activity at FPR1 in human neutrophils assessed as inhibition of fMLF-stimulated calcium mobilization at 50 uM by FLIPR assay; type: functional
T2 sequence (whole entry): T1 sequence (P21462 whole entry)

[3] = biological target: T1, fMet-Leu-Phe receptor; test: Displacement of [3H]fMLF from human FPR1 expressed in CHO cells by scintillation counting; type: cell-based
[4] = biological target: T1, fMet-Leu-Phe receptor; test: Antagonist activity at FPR1 in human neutrophils assessed as inhibition of fMLF-stimulated calcium mobilization by FLIPR assay; type: functional
[5] = biological target: T3, N-formyl peptide receptor 2 (Homo sapiens) (UniProt P25090); test: Antagonist activity at FPR2 in human neutrophils assessed as inhibition of SHHGtide-stimulated intracellular calcium mobilisation at 50 uM by FLIPR assay; type: functional, cell-based
T3 sequence (whole entry): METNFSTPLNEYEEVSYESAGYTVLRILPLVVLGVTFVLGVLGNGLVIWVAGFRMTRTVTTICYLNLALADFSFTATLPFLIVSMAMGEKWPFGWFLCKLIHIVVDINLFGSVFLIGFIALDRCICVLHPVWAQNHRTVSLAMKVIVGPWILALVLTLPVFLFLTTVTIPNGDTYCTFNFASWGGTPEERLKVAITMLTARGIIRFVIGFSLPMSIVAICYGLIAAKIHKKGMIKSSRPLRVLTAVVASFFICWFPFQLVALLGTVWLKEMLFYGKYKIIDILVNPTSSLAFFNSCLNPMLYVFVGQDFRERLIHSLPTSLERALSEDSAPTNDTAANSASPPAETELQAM

[6] = biological target: T4, C-X-C chemokine receptor type 2 (Homo sapiens) (UniProt P25025); test: Antagonist activity at CXCR2 in human neutrophils assessed as inhibition of GROalpha-stimulated intracellular calcium mobilization at 50 uM by FLIPR assay; type: functional, cell-based
T4 sequence (whole entry): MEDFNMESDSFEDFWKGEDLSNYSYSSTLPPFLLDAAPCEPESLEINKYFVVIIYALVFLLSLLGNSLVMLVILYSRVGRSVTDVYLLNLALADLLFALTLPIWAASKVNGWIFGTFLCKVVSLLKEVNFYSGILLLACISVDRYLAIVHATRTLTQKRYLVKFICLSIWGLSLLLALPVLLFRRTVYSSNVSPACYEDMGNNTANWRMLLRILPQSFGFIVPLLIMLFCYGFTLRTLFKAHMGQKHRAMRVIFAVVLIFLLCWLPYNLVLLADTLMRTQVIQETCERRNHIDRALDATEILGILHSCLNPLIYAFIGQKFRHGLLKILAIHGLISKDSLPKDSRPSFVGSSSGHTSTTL

[7] = biological target: T5, C5a anaphylatoxin chemotactic receptor 1 (Homo sapiens) (UniProt P21730); test: Antagonist activity at C5aR in human neutrophils assessed as inhibition of C5a-stimulated intracellular calcium mobilization at 50 uM by FLIPR assay; type: functional, cell-based
T5 sequence (whole entry): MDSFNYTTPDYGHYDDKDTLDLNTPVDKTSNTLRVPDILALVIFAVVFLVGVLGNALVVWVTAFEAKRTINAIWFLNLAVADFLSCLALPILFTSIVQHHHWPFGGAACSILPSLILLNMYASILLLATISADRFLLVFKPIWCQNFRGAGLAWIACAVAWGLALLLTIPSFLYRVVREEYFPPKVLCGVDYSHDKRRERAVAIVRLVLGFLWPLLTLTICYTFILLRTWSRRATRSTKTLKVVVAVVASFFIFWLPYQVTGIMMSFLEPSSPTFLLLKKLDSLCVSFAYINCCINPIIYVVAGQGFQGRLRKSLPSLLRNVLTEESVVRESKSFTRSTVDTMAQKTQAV

[8] = biological target: T1, fMet-Leu-Phe receptor; test: Antagonist activity at human FPR1 in expressed in HEK293 cells assessed as inhibition of fMLF-stimulated intracellular calcium mobilisation after 5 mins by FLIPR assay; type: functional, cell-based
[9] = Antagonist activity at rat FPR1 expressed in HEK293 cells assessed as inhibition of fMLF-stimulated intracellular calcium mobilisation by FLIPR assay; type: functional, cell-based
[10] = biological target: T2, fMet-Leu-Phe receptor (Homo sapiens); test: Agonist activity at FPR1 in human neutrophils assessed as increase in calcium mobilization at 50 uM by FLIPR assay; type: functional
[11] = biological target: T1, fMet-Leu-Phe receptor; test: Antagonist activity at FPR1 in human neutrophils assessed as inhibition of fMLF-stimulated degranulation after 15 mins by fluorescence assay; type: functional
[12] = biological target: T2, fMet-Leu-Phe receptor (Homo sapiens); test: Antagonist activity at FPR1 in human neutrophils assessed as inhibition of PMA-stimulated neutrophil degranulation after 15 mins by fluorescence assay; type: functional
[13] = biological target: T2, fMet-Leu-Phe receptor (Homo sapiens); test: Reversible inhibition of FPR1 in human neutrophils assessed as inhibition of fMLF-stimulated calcium mobilisation by FLIPR assay; type: functional
[14] = tested on: THP-1; test: Cytotoxicity against human THP1 cells assessed as cell viability after 24 hrs by Alamar blue assay; type: cell-based; conditions: THP-1, 24 h
[15] = Solubility of the compound in 0.1 M phosphate buffer; type: physicochemical
[16] = biological target: T6, fMet-Leu-Phe receptor (Mus musculus) (UniProt P33766); test: Antagonist activity at mouse FPR1 expressed in HEK293 cells assessed as inhibition of fMLFF-stimulated intracellular calcium mobilisation at 50 uM by FLIPR assay; type: functional, cell-based
T6 sequence (whole entry): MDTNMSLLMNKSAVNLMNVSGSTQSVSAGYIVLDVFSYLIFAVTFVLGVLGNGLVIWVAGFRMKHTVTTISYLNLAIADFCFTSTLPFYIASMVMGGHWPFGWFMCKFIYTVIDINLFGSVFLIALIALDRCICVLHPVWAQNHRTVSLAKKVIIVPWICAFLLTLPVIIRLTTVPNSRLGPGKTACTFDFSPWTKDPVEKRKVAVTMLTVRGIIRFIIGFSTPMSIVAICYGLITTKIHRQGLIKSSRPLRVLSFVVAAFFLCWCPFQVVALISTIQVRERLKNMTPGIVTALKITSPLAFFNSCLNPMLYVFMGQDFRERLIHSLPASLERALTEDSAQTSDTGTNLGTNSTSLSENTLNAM

[17] = biological target: T2, fMet-Leu-Phe receptor (Homo sapiens); test: (§2) Agonist activity at FPR1 in human neutrophils assessed as increase in calcium mobilization by FLIPR assay; type: functional; parameters: concentration or dose not given beside the values; conditions: concentration not given here
[18] = biological target: T1, fMet-Leu-Phe receptor; test: as §2; type: functional
[19] = biological target: T2, fMet-Leu-Phe receptor (Homo sapiens); test: as §1; type: functional

For CSCCC(NC(=O)c1ccccc1O)c1nc2ccccc2[nH]1 (configuration not stated), the IC50 [1] was 3980 nM.

Compound COc1ccccc1C(=O)NC(CCSC)c1nc2ccccc2[nH]1 (configuration not stated) has an inhibition [2] of less than 25%.

In the case of CCOc1ccc2oc(C(=O)NC(CCSC)c3nc4ccccc4[nH]3)c(C)c2c1 (configuration not stated), the IC50 [3] is reported as 31.6 nM, the IC50 [4] is reported as 501 nM and the IC50 [1] is reported as 501 nM. For the same compound, the inhibition [5] was less than 25%, the inhibition [6] was less than 25% and the inhibition [7] was less than 25%. The IC50 [8] was 3160 nM, the IC50 [9] was 10000 nM and the inhibition [10] was less than 25%. The IC50 [11] was 158 nM, the inhibition [12] was less than 25% and the inhibition [13] was “Active”. It also gave an IC50 [14] of 100000 nM, a solubility [15] of 17 µM (≈ 7.2 µg/mL) and an inhibition [16] of less than 25%.

With Cc1cccc(C)c1NC(=O)C(c1ccccc1)N(C)C(=O)c1ccccc1O (configuration not stated) the IC50 [1] was 10000 nM.

In the case of CSCCC(NC(=O)c1oc2ccccc2c1C)c1nc2ccccc2[nH]1 (configuration not stated), the IC50 [1] is reported as 3980 nM.

For CSCCC(NC(=O)c1ccccc1)c1nc2ccccc2n1Cc1ccccc1 (configuration not stated), the inhibition [17] was less than 25% and the IC50 [1] was 2510 nM.

Compound CCC[C@H](NC(=O)c1oc2ccc(OCC)cc2c1C)c1nc2ccccc2[nH]1 has an IC50 [1] of 1000 nM.

With CCOc1ccc2oc(C(=O)NC(CCSC)c3nc4ncncc4[nH]3)c(C)c2c1 (configuration not stated) the inhibition [17] was less than 25% and the IC50 [1] was 5010 nM.

In the case of CCOc1ccc2oc(C(=O)NC(c3nc4ccccc4[nH]3)c3cccs3)c(C)c2c1 (configuration not stated), the inhibition [2] is reported as less than 25%.

For CCOc1ccc2oc(C(=O)NC(CCSC)c3nc4cnccc4[nH]3)c(C)c2c1 (configuration not stated), the EC50 [18] was 1580 nM, the Intrinsic activity [19] was 0.8 and the IC50 [1] was 1000 nM.

For Cc1cccc(C)c1NC(=O)C(NC(=O)c1nc2ccccc2[nH]c1=O)c1ccc(Cl)cc1 (configuration not stated), the IC50 [1] was 2510 nM.

For Cc1ccccc1C(=O)NC(C(=O)Nc1c(C)cccc1C)c1ccc(Cl)cc1 (configuration not stated), the inhibition [2] was less than 25%.

CSCCC(NC(=O)C1CCCCC1)c1nc2ccccc2[nH]1 (configuration not stated) showed an IC50 [1] of 2510 nM.

CSCCC(NC(=O)c1ocnc1C)c1nc2ccccc2[nH]1 (configuration not stated) gave an IC50 [1] of 10000 nM.

CSCCC(NC(=O)c1ccc(C)cc1)c1nc2ccccc2[nH]1 (configuration not stated) gave an IC50 [1] of 10000 nM.

For Cc1cccc(C)c1NC(=O)C(NC(=O)c1ccccc1O)c1cn(C)cn1 (configuration not stated), the IC50 [1] was 1580 nM.

Compound Cc1cccc(C)c1NC(=O)C(NC(=O)c1ccccc1O)C1CCCCC1 (configuration not stated) has an IC50 [1] of 794 nM.

With Cc1cccc(C)c1NC(=O)C(NC(=O)c1ccccc1O)c1ccccc1 (configuration not stated) the IC50 [1] was 1260 nM.

With CSCCC(NC(=O)c1occc1C)c1nc2ccccc2[nH]1 (configuration not stated) the IC50 [1] was 3980 nM.
